Experimental data reported in patent US11166924B2, “N-methyl-d-aspartate receptor allosteric modulators and methods for their use” (Qingdao Primedicine Pharmaceutical Company, Ltd., priority 2016, dated 2021).

Experiments:
[1] = target: T1, GluN2A NMDARs in GluN2B-lacking neurons (Mus musculus, UniProt P35436+P35438); assay: Whole-cell recordings in GluN2B-knockout cortical neurons; type: cell-based; settings: compared to NMDA control
T1 construct: endogenous in cells; host or cells: primary cortical neurons from GluN2B-knockout mouse embryos
T1 sequence (P35436 23-1464, other chains not shown): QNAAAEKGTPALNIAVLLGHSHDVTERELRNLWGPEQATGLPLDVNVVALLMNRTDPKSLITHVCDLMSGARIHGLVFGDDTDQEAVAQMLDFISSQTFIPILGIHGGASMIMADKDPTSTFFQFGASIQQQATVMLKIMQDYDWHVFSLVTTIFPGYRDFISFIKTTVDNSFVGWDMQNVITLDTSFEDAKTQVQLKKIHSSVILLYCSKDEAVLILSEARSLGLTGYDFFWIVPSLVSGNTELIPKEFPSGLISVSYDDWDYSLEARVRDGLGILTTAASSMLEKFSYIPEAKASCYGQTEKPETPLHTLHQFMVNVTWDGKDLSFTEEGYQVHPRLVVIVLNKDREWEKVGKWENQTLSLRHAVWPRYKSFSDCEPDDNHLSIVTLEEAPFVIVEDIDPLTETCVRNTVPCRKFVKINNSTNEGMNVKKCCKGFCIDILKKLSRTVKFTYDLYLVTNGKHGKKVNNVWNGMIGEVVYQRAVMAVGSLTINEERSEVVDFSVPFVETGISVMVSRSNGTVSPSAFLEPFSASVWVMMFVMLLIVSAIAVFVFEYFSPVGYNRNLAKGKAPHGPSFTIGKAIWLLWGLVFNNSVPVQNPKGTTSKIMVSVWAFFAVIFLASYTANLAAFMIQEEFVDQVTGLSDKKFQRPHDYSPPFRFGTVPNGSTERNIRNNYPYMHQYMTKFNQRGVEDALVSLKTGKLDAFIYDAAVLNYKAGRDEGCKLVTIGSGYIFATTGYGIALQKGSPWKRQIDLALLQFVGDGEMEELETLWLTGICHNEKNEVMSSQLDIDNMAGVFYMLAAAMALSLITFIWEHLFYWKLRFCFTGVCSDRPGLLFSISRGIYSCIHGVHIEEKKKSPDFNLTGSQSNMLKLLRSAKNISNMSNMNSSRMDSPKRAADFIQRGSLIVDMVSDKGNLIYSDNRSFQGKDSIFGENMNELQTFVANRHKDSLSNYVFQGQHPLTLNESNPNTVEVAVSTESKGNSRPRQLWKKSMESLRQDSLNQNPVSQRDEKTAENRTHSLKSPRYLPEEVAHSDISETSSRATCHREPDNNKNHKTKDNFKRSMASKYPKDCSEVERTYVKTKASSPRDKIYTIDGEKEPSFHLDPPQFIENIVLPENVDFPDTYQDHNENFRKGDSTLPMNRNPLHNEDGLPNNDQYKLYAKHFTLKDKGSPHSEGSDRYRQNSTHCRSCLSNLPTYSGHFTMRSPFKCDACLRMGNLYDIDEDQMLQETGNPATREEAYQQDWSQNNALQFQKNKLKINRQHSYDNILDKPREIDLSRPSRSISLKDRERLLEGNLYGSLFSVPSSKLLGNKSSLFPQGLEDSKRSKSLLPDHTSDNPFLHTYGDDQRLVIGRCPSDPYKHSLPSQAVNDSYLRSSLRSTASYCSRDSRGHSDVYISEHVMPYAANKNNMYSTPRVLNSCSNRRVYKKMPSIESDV

[2] = tested on: hippocampal slices (LTP); assay: Long-term potentiation (LTP) in hippocampal slices; settings: mouse hippocampal slices; FIG. 19
Description: 6-8 week old C57/Bl6 mice or rats underwent cervical dislocation followed by decapitation. The brain was immediately transferred to an ice cold NMDG-based cutting solution consisting of: (in mM): 120 NMDG, 2.5 KCl, 1.2 NaH2PO4, 25 NaHCO3, 1.0 CaCl2, 7.0 MgCl2, 2.4 Na-pyruvate, 1.3 Na-ascorbate, 20 D-glucose with pH adjusted to 7.35 using HCl acid (unless stated, all chemicals and drugs were purchased from Sigma or BioShop, Canada). The hippocampus was dissected out and transverse hippocampal slices (400 μm) were obtained using a manual tissue chopper (Stoelting, Wood Dale, Ill., USA). Slices recovered in a heated (30° C.) incubating chamber for 1 hr which contained ACSF composed of (in mM): 124 NaCl, 3 KCl, 1.25 NaH2PO4, 1 MgSO47H2O, 2 CaCl2), 26 NaHCO3 and 15 D-glucose which was bubbled continuously with carbogen (95% O2/5% CO2) (pH to 7.3). After 30 additional minutes at room temperature, slices were transferred to a submerged recording chamber and were perfused continuously with carbogenated ACSF (2-3 ml/min). Whole-cell recordings of CA1 pyramidal neurons were performed using the “blind” method with a MultiClamp 700B amplifier. EPSCs (excitatory post synaptic currents) were elicited by stimulating the SC pathway. For isolation of NMDAR currents, cells were voltage clamped at +40 mV. […]

[3] = tested on: post-stroke locomotory behavior; assay: Neurological behavioral tests after stroke; type: in vivo, rat; settings: 28 days after stroke onset, versus untreated control rats
Experimental: To assess functional recovery of neural circuits damaged by ischemic insult, three locomotor activity (sensorimotor) deficit modalities were tested: 1) vertical activity (the total number of beam interruptions that occurred in the vertical sensor); 2) number of vertical movements (number of animal rears); and 3) vertical movement time (the amount of time, in seconds, the animal rears) using the VersaMax Animal Activity Monitor (Accuscan Instruments). An ischemic rat was placed into the recording chamber during the ‘dark’ phase of the day/night cycle, and vertical movement time (seconds) was automatically recorded by computer over a 2 h period. The total length of vertical movement represents the recovery of locomotor circuits injured by ischemic stroke.
Neurobehavioral assays were performed to assess functional recovery of neurons post-stroke.

[4] = target: T2, GluN1/GluN2A^I176Y (Rattus norvegicus, UniProt P35439+Q00959, I176Y); assay: Patch clamp in HEK293 cells expressing mutant GluN1/GluN2A I176Y; type: cell-based
T2 construct: expressed in transfected cells; host or cells: HEK293
T2 sequence (Q00959 23-1464 I176Y, other chains not shown): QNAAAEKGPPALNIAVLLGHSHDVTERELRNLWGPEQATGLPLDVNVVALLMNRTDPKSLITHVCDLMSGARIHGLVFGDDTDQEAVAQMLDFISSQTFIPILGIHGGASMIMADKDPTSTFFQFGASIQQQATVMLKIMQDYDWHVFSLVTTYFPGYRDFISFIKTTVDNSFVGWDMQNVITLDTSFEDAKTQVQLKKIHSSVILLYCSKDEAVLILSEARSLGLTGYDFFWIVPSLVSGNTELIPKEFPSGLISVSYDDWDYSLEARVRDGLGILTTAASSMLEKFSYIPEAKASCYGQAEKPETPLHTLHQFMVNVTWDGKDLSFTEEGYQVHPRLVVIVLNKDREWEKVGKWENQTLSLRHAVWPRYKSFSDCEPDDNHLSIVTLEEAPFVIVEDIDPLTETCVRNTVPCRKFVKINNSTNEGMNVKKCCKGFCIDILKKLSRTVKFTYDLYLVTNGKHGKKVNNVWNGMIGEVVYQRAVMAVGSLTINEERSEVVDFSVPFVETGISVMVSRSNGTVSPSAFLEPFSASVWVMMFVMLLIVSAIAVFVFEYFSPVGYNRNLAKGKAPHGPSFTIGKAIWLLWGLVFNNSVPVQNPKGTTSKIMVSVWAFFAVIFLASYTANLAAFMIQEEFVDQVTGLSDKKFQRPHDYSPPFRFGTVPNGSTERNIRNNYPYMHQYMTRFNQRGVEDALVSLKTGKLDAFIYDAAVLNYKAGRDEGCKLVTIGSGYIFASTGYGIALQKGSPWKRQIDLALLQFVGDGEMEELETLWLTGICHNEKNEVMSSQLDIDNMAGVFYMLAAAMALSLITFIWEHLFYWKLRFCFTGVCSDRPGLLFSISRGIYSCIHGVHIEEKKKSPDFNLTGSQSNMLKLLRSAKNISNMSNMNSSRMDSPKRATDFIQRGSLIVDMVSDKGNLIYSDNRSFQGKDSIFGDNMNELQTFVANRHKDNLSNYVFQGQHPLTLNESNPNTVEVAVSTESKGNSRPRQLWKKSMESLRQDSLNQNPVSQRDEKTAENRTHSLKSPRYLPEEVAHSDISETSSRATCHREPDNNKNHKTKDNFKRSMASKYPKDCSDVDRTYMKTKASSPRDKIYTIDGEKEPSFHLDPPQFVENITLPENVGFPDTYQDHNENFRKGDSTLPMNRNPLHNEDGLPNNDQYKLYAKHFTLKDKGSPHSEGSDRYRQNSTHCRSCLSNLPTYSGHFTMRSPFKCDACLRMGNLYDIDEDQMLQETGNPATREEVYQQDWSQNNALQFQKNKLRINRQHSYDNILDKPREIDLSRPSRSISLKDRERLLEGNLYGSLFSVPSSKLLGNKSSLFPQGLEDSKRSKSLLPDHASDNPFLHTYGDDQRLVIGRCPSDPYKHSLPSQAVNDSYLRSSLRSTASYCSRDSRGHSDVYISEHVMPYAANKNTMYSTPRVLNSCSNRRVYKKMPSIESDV
Experimental: Whole cell patch-clamp recordings were performed under voltage-clamp mode using an Axopatch 200B or 1D patch-clamp amplifier (Molecular Devices). Whole-cell currents were recorded at a holding potential of −60 mV unless indicated elsewhere, and signals were filtered at 2 kHz, digitized at 10 kHz (Digidata 1322A). Recording pipettes (3-5 MΩ) were filled with intracellular solution containing (mM): CsCl 140, HEPES 10, Mg-ATP 4, QX-314 5, pH 7.20; osmolarity, 290-295 mOsm. BAPTA (10 mM) was added in the intracellular solution (unless otherwise specified). The coverslips were continuously superfused with extracellular solution containing (mM): NaCl 140, KCl 5.4, HEPES 10, CaCl2 1.3, glucose 20, pH 7.4; osmolarity, 305-315 mOsm. NMDA-induced currents were applied by NMDA through perfusion fast-step (Warner Instruments). With perfusion fast-step system, NMDA application was achieved by using a two-square barrel glass tubing and depending on the age of the cultured neurons, CNQX (10 μM), TTX (0.5 μM) or BIC (10 μM) were added in the extracellular solution to minimize the activation of ionotropic glutamate receptors and voltage-gated sodium channels, respectively. All experiments were performed at room temperature. Recordings from at least six HEK293 cells/neurons were performed for all active compounds. […]

## COc1cccc(/C=N/NC(=O)c2ccccc2C)c1O [Npam02, (E)-N′-(2-hydroxy-3-methoxybenzylidene)-2-methylbenzohydrazide]
[1]; 100 μM bath, NMDA 20 μM, glycine 2 μM
  Positive modulation of NMDAR currents: 44.72±4.29%
[1]; GluN2B-knockout neurons
  Potentiation effect with co-applied ifenprodril (IF): 42.22±4.03%
[1]; Npam02 100 μM
  NMDAR current change with NVP-AAM007 (0.2 μM) and Npam02: 88.87±3.45%

## CCOc1cc(Cl)c(Cl)c(/C=N/NC(=O)c2ccccc2Br)c1O [Npam43, (E)-2-bromo-N′-(2,3-dichloro-5-ethoxy-6-hydroxybenzylidene)benzohydrazide]
[2]
  Induction of LTP: can facilitate the induction of LTP
[3]
  Post-stroke locomotory behavior: increased post-stroke locomotory behavior
[4]; Table 3
  Relative potentiation: 189 ± 3.8%
[4]; normalized to wild-type
  Net Difference potentiation: −10.1 ± 0.12%
